How the values were obtained:
[1] = test system: human prostate cancer PC-3M cells; experiment: Survival of PC-3M cells under stress conditions, MTT assay; assay type: cell-based; settings: serum-free media with 0.5 g/L glucose
Method: FIG. 16. Metastatic human prostate cancer PC-3M cells were grown in RPMI media supplemented with 0.5 g/L glucose and glutamine. Their survival rate was measured after 48 h and 72 h using an MTT assay. The control depicts survival of the cells with no extracellular citrate or glutamate.
4. Effect of gluconate on the survival of human prostate cancer PC-3M cells (16)

PC-3M cells [2] = experiment: Flow cytometry-based cell division (cell cycle) study; design: species or system human; settings: PC-3M cells cultured with supplemented citrate, normoxic
Method: (§1) FIG. 3. Glycolytic activity and amino acid release. (A) Amount of glucose consumed and lactate released by PC-3M cells grown for 24 h with or without 200 μM citrate. (**P<0.01; n=5). (B) Concentrations of glycine, alanine and proline in the supernatants of PC-3M cells grown for 72 h with or without 200 μM citrate. (*P<0.05, **P<0.01; n=5). (C) Influence of extracellular citrate on the intracellular ratio of 13C-labeled to unlabelled free amino acids. PC-3M cells were incubated for 72h in media supplemented with [U-^13C]glucose with or without 200 μM unlabelled citrate, the ratio of ^13C incorporation into amino acids is shown. (*P<0.05, ***P<0.005; n=5). (D) Cell division in the presence or absence of extracellular citrate under normoxic conditions determined by flow cytometry. (*P<0.05, **P<0.01; n=6).
An increase in the synthesis of amino acids in the presence of extracellular citrate prompted cell division testing. […] Therefore, metabolic changes induced by extracellular citrate affect metabolism to an extent that impacts cellular processes such as cell division.
Studies were performed as before^28. […] ROS production was detected with dihydrorhodamine 123 (Molecular Probes, Darmstadt, Germany). […] At least 10,000 live cells were measured per sample. Dead cells were detected using the Aqua Live/Dead cell kit (Molecular Probes).

normal PNT2-C2 cells = experiment: ROS synthesis by flow cytometry in PNT2-C2 cells; assay type: cell-based, human; settings: extracellular citrate
Method: FIG. 2. Impact of extracellular citrate on Krebs cycle activity. PC-3M cells were incubated for 72 h with 25 mM [U-13C]glucose with or without the addition of 200 μM unlabelled citrate. (A) Differences in the ratio of uniform ^13C incorporation into fully labelled Krebs cycle intermediates. (*P<0.05, ***P<0.005; n=5). (B) Differences in ROS synthesis determined by flow cytometry for PC-3M (left) and PNT2-C2 (right) cells. Cells were incubated in media containing FCS, dialysed FCS+200 μM citrate, or dialysed serum only. Shown are geometric means±SD. (*P<0.05; n=6-9). […] Changes in mCiC in mitochondrial protein derived from PNT2-C2 cells was also determined under normoxic conditions (right). […]
Changes in Krebs cycle activity were also determined by measuring the absolute amounts determined as a normalized response of the studied substrates (unlabelled and total ^13C depicting all substrates with any number of labelled carbons) in the presence or absence of unlabelled extracellular citrate (FIG. 7). […] Using flow cytometry the inventors also determined that ROS levels in PC-3M cells grown with extracellular citrate were decreases by about 20%, compared to cells grown in citrate-depleted dialysed serum (FIG. 2B); use of normal non-dialysed serum also reduces ROS levels. […]
Studies were performed as before^28. […] ROS production was detected with dihydrorhodamine 123 (Molecular Probes, Darmstadt, Germany). […]

PC-3M cells [3] = experiment: Glucose uptake and lactate release in media of PC-3M cells; assay type: cell-based, human; settings: 200 μM citrate, 24 h
Method: as §1
To assess glycolysis the inventors measured (unlabelled) glucose uptake and lactate release in the media from PC-3M cells incubated±200 μM citrate for 24 h. […] This effect is most likely related to increased conversion of pyruvate to lactate because of decreased mitochondrial citrate synthesis.
Metabolites were extracted with 80% methanol and measured by HPLC-ESI-MS/MS on an AB SCI EX (Framingham, MA, USA) Q TRAP™ 4000 system. […] Lactate and glucose in the media were measured as previously described^27.

pmCiC = target: T1, pmCiC (Homo sapiens, UniProt P53007); experiment: pmCiC expressed in oocytes, two electrodes voltage clamp, citrate-induced current; assay type: cell-based
T1 construct: expressed in transfected cells
Method: FIG. 13. Oocytes were injected with either pmCiC cDNA (A) or water (B).
1. pmCiC expression in oocytes—two electrodes voltage clamp (FIG. 13)
We have expressed pmCiC in oocytes and induced citrate inward current by introducing citrate into extracellular media. […] This reduction was irreversible, as subsequent application of citrate after gluconate removal from the media was not able to restore the primary response.

[4] = test system: human prostate cancer PC-3M cells; experiment: Patch clamp, citrate-induced current in PC-3M cells; assay type: cell-based
Method: (§2) FIG. 14. Patch clamp recordings were performed on PC-3M (A) and PNT2-C2 (B) cells. […] Importantly, reduction in citrate-induced current in the presence of gluconate was irreversible. […] The effect of reduced citrate-induced current was greater in the case of PC-3M cells versus PNT2-C2 cells.
(§3) 2. Patch clamp on human prostate cancer PC-3M and benign PNT2-C2 cells (FIG. 14)
(§4) Extracellular application of citrate induced inward current in both cell lines as described earlier. […] As in the case of oocytes, gluconate inhibition of citrate-induced current was irreversible. Repeated application of citrate on PC-3M cells has been previously shown not to cause any reduction in citrate current (Mycielska et al., 2005).

benign PNT2-C2 cells = experiment: Patch clamp, citrate-induced current in PNT2-C2 cells; assay type: cell-based, human; settings: 10 mM gluconate, 10 mM citrate
Method: as §2, §3, §4

pmCiC mRNA = experiment: RealTime PCR, pmCiC mRNA expression in PC-3M cells; assay type: cell-based, human; settings: media with citrate plus 5 mM gluconate vs citrate only
Method: (§5) FIG. 15. Metastatic human prostate cancer PC-3M cells were grown with extracellular citrate in the presence or absence of gluconate (5 mM). RealTime PCR was performed to assess changes to the mRNA expression level of pmCiC and mCiC.
(§6) 3. Effects of extracellular gluconate on pmCiC mRNA expression (FIG. 15)
(§7) We have studied the effect of gluconate in the extracellular media supplemented with citrate on the expression changes of pmCiC and mCiC as compared to the control conditions where the cells were incubated with extracellular citrate only. […] On the other hand, there was a significant mCiC mRNA increase, which would indicate increased mitochondrial activity to maintain intracellular citrate level.

mCiC mRNA = experiment: RealTime PCR, mCiC mRNA expression in PC-3M cells; assay type: cell-based, human; settings: media with citrate plus 5 mM gluconate vs citrate only
Method: as §5, §6, §7

T1 sequence (P53007 with tags, fused parts or gaps limits assumed): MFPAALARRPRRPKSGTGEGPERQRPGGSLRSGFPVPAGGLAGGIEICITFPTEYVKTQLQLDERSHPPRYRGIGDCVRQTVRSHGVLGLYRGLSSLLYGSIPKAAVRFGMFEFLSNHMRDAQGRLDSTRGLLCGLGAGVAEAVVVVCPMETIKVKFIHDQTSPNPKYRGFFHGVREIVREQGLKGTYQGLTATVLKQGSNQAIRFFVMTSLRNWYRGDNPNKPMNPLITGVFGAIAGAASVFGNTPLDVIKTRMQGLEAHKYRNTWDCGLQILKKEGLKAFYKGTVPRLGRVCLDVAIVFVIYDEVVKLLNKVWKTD

SMILES	survival of cancer cells under stress conditions with extracellular citrate ([1]; 200 μM citrate)	cell cycle phase distribution (PC-3M cells [2])	ROS synthesis (normal PNT2-C2 cells)	lactate production (absolute amount of lactate per media volume) (PC-3M cells [3])	reversibility of the reduction of citrate-induced current (pmCiC; citrate applied again after gluconate removal from the media)	citrate-induced current in the presence of gluconate (pmCiC; oocytes injected with pmCiC cDNA, gluconate applied extracellularly)	reversibility of gluconate inhibition of citrate-induced current ([4]; PC-3M cells, 10 mM gluconate)	citrate-induced current in the presence of gluconate ([4]; PC-3M cells, 10 mM gluconate, 10 mM citrate)	effect of repeated application of gluconate on citrate-induced current ([4]; repeated application)	citrate-induced current in the presence of gluconate (benign PNT2-C2 cells)	pmCiC mRNA expression (pmCiC mRNA)	mCiC mRNA expression (mCiC mRNA)	survival of cells in the presence of extracellular citrate and gluconate ([1]; 200 μM citrate, 48 h and 72 h)	cell survival with gluconate in the absence of extracellular citrate ([1]; no citrate)
O=C(O)CC(O)(CC(=O)O)C(=O)O [citrate]	increases survival	sharp increase in the G2/M phase	did not affect ROS synthesis	unaffected	–	–	–	–	–	–	–	–	–	–
O=C(O)[C@H](O)[C@@H](O)[C@H](O)[C@H](O)CO [gluconate]	–	–	–	–	irreversible	significantly decreased	irreversible	decreased	further citrate-induced current reduction	decreased	significantly increased	significantly increased	protective effect of extracellular citrate is abolished	no effect on cell survival
